Source: patent US20060067959A1, “Compositions and methods for treatment of solar damage” (priority 2004, published 2006)

Legend:
[1] = test system: human skin fibroblasts; test: Cell proliferation and collagen synthesis on treated pericardium; assay type: cell-based; details: discussion summary
Procedure: Discs, 15 mm in diameter, were punched out from PA-treated bovine pericardium and inserted into the bottom of 24-well plates, After washing and equilibrating with PBS, human skin fibroblasts, 8×10^4/well, third passage (kindly provided by Dr. Warren Garner, University of Southern California) were placed on top of the tissues. After 48 h of culture in 10% FBS/DMEM, the medium was changed to labeling medium ([^3H]thymidine, 10 μCi/mL, 0.5% FBS/DMEM) followed by a 24-h labeling period. Cells proliferation was assayed and collagen synthesis recorded as [^3H]OH-proline incorporation in a culture medium containing 25 μg/mL ascorbic acid, 25 μg/mL β-APN and 25 μCi/mL [^3H]proline in 0.5% FBS/DMEM after labeling for 48 h.

[2] = test system: NIH 3T3 cells
Procedure: NIH 3T3 cells were used in these studies. Cells were cultured in 24-well plates at a density of […] in 10% FBS/DMEM overnight. […] Cells were incubated for 72 hours before cell counting and morphological studies.

[3] = test system: Fischer 344 rats; test: Subcutaneous implantation of treated tissue
From the text: Three-week-old Fischer 344 rats were obtained from Harlan Sprague Dawley, Inc. (Indianapolis, Ind.). NIH and University of Southern California IACUC guidelines for the care and use of laboratory animals were observed. […] The samples were retrieved after 3 and 6 weeks postoperation, and samples were processed for H&E and von Kossa staining, the latter to determine the extent of calcification.

[4] = target: T1, bovine tendon (Bos taurus, UniProt P02453+P02465); test: Melting temperature measurement of fixed tendon; details: treated 48 hours, n = 3; PA 0.5% in PBS, GA 0.625% in PBS; untreated control 55 ± 0.5; in °C
T1 construct: Fresh bovine tendon; from tissue; host or cells: bovine tendon
T1 sequence (P02453 162-1217 limits assumed): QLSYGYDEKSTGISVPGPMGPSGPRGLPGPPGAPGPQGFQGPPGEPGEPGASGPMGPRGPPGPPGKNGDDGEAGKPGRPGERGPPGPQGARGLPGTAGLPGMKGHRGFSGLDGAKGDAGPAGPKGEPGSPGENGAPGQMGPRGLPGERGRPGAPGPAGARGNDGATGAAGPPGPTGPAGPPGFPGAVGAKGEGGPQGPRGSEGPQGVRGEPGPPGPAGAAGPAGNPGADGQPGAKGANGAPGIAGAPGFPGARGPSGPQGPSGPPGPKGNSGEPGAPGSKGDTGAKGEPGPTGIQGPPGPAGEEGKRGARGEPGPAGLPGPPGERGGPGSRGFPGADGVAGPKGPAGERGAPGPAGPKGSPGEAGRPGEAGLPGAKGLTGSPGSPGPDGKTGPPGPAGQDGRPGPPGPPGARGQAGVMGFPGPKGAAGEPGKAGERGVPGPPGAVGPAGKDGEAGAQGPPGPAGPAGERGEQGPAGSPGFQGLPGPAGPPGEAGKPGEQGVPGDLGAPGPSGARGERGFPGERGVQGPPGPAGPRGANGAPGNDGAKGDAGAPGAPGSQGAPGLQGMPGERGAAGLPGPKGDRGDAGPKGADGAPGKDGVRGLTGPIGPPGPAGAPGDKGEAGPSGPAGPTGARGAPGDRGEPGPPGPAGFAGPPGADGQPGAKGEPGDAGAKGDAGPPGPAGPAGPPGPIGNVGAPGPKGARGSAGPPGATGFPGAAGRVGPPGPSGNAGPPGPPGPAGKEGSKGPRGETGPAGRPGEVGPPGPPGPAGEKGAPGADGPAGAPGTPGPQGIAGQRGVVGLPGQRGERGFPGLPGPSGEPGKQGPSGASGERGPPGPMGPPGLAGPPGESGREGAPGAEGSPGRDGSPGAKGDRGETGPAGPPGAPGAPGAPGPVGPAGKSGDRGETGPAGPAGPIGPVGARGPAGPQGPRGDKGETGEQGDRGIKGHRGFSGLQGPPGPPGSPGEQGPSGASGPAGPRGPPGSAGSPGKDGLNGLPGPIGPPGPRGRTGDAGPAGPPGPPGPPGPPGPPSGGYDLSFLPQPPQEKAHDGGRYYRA
T1 sequence (P02465 80-1117 limits assumed): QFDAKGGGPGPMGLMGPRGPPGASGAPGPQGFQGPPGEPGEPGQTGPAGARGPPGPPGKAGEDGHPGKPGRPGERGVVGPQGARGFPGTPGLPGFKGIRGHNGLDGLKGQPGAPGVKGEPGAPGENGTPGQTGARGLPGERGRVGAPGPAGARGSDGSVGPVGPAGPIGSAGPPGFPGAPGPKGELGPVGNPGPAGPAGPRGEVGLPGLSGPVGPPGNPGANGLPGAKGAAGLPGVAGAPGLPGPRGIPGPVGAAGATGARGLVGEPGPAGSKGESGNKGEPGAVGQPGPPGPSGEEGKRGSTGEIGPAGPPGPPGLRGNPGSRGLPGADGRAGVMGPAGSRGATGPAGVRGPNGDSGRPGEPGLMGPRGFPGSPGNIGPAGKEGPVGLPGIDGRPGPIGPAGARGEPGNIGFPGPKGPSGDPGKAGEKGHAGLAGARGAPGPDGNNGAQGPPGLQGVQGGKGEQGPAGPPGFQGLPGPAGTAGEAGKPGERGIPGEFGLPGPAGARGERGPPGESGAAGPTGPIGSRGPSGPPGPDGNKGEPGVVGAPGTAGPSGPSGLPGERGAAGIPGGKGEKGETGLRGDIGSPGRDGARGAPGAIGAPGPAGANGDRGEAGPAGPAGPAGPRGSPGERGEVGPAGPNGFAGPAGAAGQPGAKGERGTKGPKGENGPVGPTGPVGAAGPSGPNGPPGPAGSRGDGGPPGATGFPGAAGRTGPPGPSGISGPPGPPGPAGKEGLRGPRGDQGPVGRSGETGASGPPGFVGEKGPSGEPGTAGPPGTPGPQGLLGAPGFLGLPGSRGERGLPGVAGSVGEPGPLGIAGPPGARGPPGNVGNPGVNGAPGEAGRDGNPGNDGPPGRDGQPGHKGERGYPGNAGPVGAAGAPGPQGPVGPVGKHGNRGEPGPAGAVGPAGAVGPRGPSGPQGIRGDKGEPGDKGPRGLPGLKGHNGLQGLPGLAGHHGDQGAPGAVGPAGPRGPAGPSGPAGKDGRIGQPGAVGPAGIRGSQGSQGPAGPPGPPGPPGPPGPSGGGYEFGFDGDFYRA
Procedure: (§1) The fixed tissues and fresh tissues were assayed for their melting temperature by heating tissue strips (1×2 cm^2, n=3). The melting temperature was recorded when tissues started to shrink.

[5] = test system: bovine pericardium; test: Melting temperature measurement of fixed pericardium; details: treated 48 hours, n = 3; PA 0.5% in PBS, GA 0.625% in PBS; untreated control 70 ± 1.0; in °C
Procedure: as §1

[6] = test system: bovine pericardium; test: In vitro enzymatic degradation by collagenase, H&E histology; details: 24 h digestion, 0.5% proanthocyanidin or 0.625% GA treated, fresh tissues disintegrated
Procedure: Tissue integrity was checked at the end of the incubation using a standard histological method (hematoxylin-eosin (H&E)). […] At predetermined intervals, 1.0 mL solution was taken out and filtered through an 0.45-μM cellulose filter to separate solubilized collagen from insolubilized matrix. The amount of solubilized collagen was determined after total acid hydrolysis in 6N HCl for 24 h at 100° C. by measuring hydroxyproline (R. Kultan et al., “Collagen Treated with (+)-Catechin Becomes Resistant to the Action of Mammalian Collagenase,” Experientia 37: 221-223 (1981)). The results are expressed as a percentage of the total collagen solubilized.

- calcification (Von Kossa staining) ([3]; rat, in vivo): dystrophic calcification
- calcification after implantation ([3]; rat, in vivo): encourages dystrophic calcification
- tissue reaction to implant ([3]; rat, in vivo): lesser inflammatory reaction
- Melting temperature, Tendon [4]: 84 ± 1.0
- collagen fibril structure after collagenase digestion [6]: remained intact
SMILES: O=CCCCC=O [GA, glutaraldehyde]
- rate of collagen synthesis of fibroblasts [1]: inhibits collagen synthesis
- cytotoxicity (FIG. 1 legend) [2]: cytotoxicity
- cytotoxicity of treated tissue [2]: continues to be cytotoxic
- concentration at which cells could not survive ([2]; mouse, 72 h): > 600 ng/mL
- degradation of fixed tissue after subcutaneous implantation ([3]; periods ranging from 3 and 6 weeks (discussion)): no apparent degradation
- implant degradation ([3]; six weeks postoperatively, control completely degraded): still intact
- implant integrity ([3]; three weeks postoperatively, control tissues start to disaggregate): retain their integrity
- Melting temperature, Pericardium [5]: 94 ± 1.5
